# Read-outs that look alike come from different tables or passages of the source.
# Tests used:
# [1] = LEN plasma concentrations during oral bridging period, CALIBRATE (Phase 2, ARV-naive PWH); type: in vivo; conditions: for concentration at 1 day / concentration at 10 week / concentration at 20 week / concentration at 30 week: human, plasma, 300 mg
# Source text: The objective of this study was to evaluate the pharmacokinetics (PK) of LEN during oral bridging period (OBP) to assess the adequacy of 300-mg PO once-weekly (QW) regimen for maintaining therapeutic concentrations between missed SC LEN doses. During OBP, sparse PK samples were collected at the start of OBP and every ˜10-12 weeks (without regard to a prespecified time since dose) until SC LEN was resumed. LEN plasma concentrations were summarized during OBP in the CAPELLA (N=57) and CALIBRATE (N=82) studies.
# This Example describes a Phase 2, randomized, open-label, active-controlled, multicenter study. Participants in Treatment Groups 1 and 2 required oral bridging following a clinical hold imposed by the Food & Drug Administration on injectable LEN as the SC injection of LEN could not be administered within the protocol visit window. An Oral Bridging visit was completed every 10 to 12 weeks. Participants had to have met all of the inclusion criteria and none of the exclusion criteria to be included in the study.
# Participants in Treatment Groups 1 and 2 required oral weekly bridging when SC injection of LEN could not be administered due to the LEN clinical hold. • If 26 to 28 weeks elapsed since the last SC injection and if clinically appropriate to continue LEN, oral LEN 300 mg (1 tablet) once a week was started at oral bridging visits and continued weekly dosing on the same day of the week. • If more than 28 weeks elapsed since the last SC injection and if clinically appropriate to continue LEN, the oral lead-in was restarted at the oral bridging visit and the participant continued oral weekly dosing on the same day of the week, until SC LEN was administered, as shown in Table 9. • Participants continued receiving oral weekly LEN 300 mg until they received their next SC LEN injection. • Oral bridging visits were completed every 10-12 weeks. Additional visits during the oral weekly administration were conducted perd investigator's discretion.
# HIV-1 = assay: Efficacy of oral bridging (HIV-1 RNA, CD4), CAPELLA; type: in vivo, human; conditions: for Percentage who maintained HIV-1 RNA<50 copies/mL: OB baseline HIV-1 RNA<50, Missing=Failure; for Proportion of participants with HIV-1 RNA<50 copies/mL: suppressed at OB baseline
# Source text: This Example describes analysis of oral LEN bridging administered during a Phase 2/3, global, randomized, placebo-controlled multicenter study of lenacapavir (LEN) together with an optimized background regimen (OBR) in people with HIV (PWH) with multidrug resistance (MDR) (to […] antiretroviral (ARV) medications from each of ≥3 of the 4 main classes) and who are failing their current regimen (defined as plasma HIV-1 RNA≥400 copies/mL).
# This Example describes a Phase 2/3, global, randomized, placebo-controlled multicenter study of LEN together with an OBR in PWH with MDR (to ≥2 ARV medications from each of ≥3 of the 4 main classes) and who are failing their current regimen (defined as plasma HIV-1 RNA≥400 copies/mL). Participants required oral bridging if an SC injection of LEN was not administered within the protocol visit window.
# Participants were enrolled in either of the following two cohorts: • Cohort 1: Randomized in a 2:1 ratio to receive oral LEN or placebo for 14 days starting on Day 1, while they continued their existing regimen; or • Cohort 2: Enrolled to receive oral LEN together with an OBR.
# [2] = Safety data from all completed and ongoing clinical studies of LEN; type: in vivo, human; conditions: oral doses up to 1800 mg
# Experimental: Lenacapavir has been administered orally at doses up to 1800 mg. […] Oral LEN was administered without regard to food.
# [3] = Safety during oral bridging, studies of Examples 4-5 together
# [4] = SC LEN total, SC LEN resumption visit
# [5] = Treatment Group 1, SC LEN resumption visit
# [6] = Treatment Group 2, SC LEN resumption visit
compound,measurement,setting,value
"CC(C)(C#Cc1ccc(-c2ccc(Cl)c3c(NS(C)(=O)=O)nn(CC(F)(F)F)c23)c([C@H](Cc2cc(F)cc(F)c2)NC(=O)Cn2nc(C(F)(F)F)c3c2C(F)(F)[C@@H]2C[C@H]32)n1)S(C)(=O)=O [LEN, N—((S)-1-(3-(4-chloro-3-(methylsulfonamido)-1-(2,2,2-trifluoroethyl)-1H-indazol-7-yl)-6-(3-methyl-3-(methylsulfonyl)but-1-yn-1-yl)pyridin-2-yl)-2-(3,5-difluorophenyl)ethyl)-2-((3bS,4aR)-5,5-difluoro-3-(trifluoromethyl)-3b,4,4a,5-tetrahydro-1H-cyclopropa [3,4]cyclopenta [1,2-c]pyrazol-1-yl) acetamide]",Mean LEN plasma concentration,"[1]; SC LEN total (Groups 1+2), oral LEN 300 mg QW, Day 1",27.8 (47.4) ng/mL
same,Lower 90% CI of Concentration,[1]; [4],43.6 ng/mL
same,Mean LEN plasma concentration,[1]; [4],50.7 ng/mL
same,Mean LEN plasma concentration,"[1]; SC LEN total, Week 10",54.9 (70.8) ng/mL
same,Mean LEN plasma concentration,"[1]; SC LEN total, Week 20",52.5 (77.7) ng/mL
same,Mean LEN plasma concentration,"[1]; SC LEN total, Week 30",50.1 (62.3) ng/mL
same,Mean LEN plasma concentration,"[1]; Treatment Group 1 (SC LEN + [DVY→TAF]), Day 1",28.8 (47.7) ng/mL
same,Lower 90% CI of Concentration,[1]; [5],38.6 ng/mL
same,Mean LEN plasma concentration,[1]; [5],49.4 ng/mL
same,Mean LEN plasma concentration,"[1]; Treatment Group 1, Week 10",50.9 (67.0) ng/mL
same,Mean LEN plasma concentration,"[1]; Treatment Group 1, Week 20",53.1 (84.5) ng/mL
same,Mean LEN plasma concentration,"[1]; Treatment Group 1, Week 30",43.7 (74.7) ng/mL
same,Mean LEN plasma concentration,"[1]; Treatment Group 2 (SC LEN + [DVY→BIC]), Day 1",26.7 (47.3) ng/mL
same,Lower 90% CI of Concentration,[1]; [6],42.7 ng/mL
same,Mean LEN plasma concentration,[1]; [6],52.2 ng/mL
same,Mean LEN plasma concentration,"[1]; Treatment Group 2, Week 10",59.3 (73.6) ng/mL
same,Mean LEN plasma concentration,"[1]; Treatment Group 2, Week 20",51.9 (70.2) ng/mL
same,Mean LEN plasma concentration,"[1]; Treatment Group 2, Week 30",56.5 (62.5) ng/mL
same,concentration at 1 day,"[1]; oral, SC LEN total (Groups 1+2), oral LEN 300 mg QW, Day 1, read-out: Mean LEN plasma concentration",27.8 ng/mL
same,concentration at 1 day,"[1]; oral, Treatment Group 1, Day 1, read-out: Lower 90% CI of Concentration",25.2 ng/mL
same,concentration at 10 week,"[1]; oral, Treatment Group 1, Week 10, read-out: Lower 90% CI of Concentration",41.1 ng/mL
same,concentration at 10 week,"[1]; oral, Treatment Group 1, Week 10, read-out: Mean LEN plasma concentration",50.9 ng/mL
same,concentration at 20 week,"[1]; oral, Treatment Group 1, Week 20, read-out: Lower 90% CI of Concentration",39.6 ng/mL
same,concentration at 20 week,"[1]; oral, Treatment Group 1, Week 20, read-out: Mean LEN plasma concentration",53.1 ng/mL
same,concentration at 30 week,"[1]; oral, Treatment Group 1, Week 30, read-out: Mean LEN plasma concentration",43.7 ng/mL
same,concentration at 1 day,"[1]; oral, Treatment Group 2, Day 1, read-out: Lower 90% CI of Concentration",23 ng/mL
same,concentration at 10 week,"[1]; oral, Treatment Group 2, Week 10, read-out: Lower 90% CI of Concentration",46.4 ng/mL
same,concentration at 10 week,"[1]; oral, Treatment Group 2, Week 10, read-out: Mean LEN plasma concentration",59.3 ng/mL
same,concentration at 20 week,"[1]; oral, Treatment Group 2, Week 20, read-out: Lower 90% CI of Concentration",40.2 ng/mL
same,concentration at 20 week,"[1]; oral, Treatment Group 2, Week 20, read-out: Mean LEN plasma concentration",51.9 ng/mL
same,concentration at 30 week,"[1]; oral, Treatment Group 2, Week 30, read-out: Mean LEN plasma concentration",56.5 ng/mL
same,concentration at 1 day,"[1]; sc, SC LEN total, Day 1, read-out: Lower 90% CI of Concentration",25.3 ng/mL
same,concentration at 10 week,"[1]; sc, SC LEN total, Week 10, read-out: Lower 90% CI of Concentration",47.1 ng/mL
same,concentration at 10 week,"[1]; sc, SC LEN total, Week 10, read-out: Mean LEN plasma concentration",54.9 ng/mL
same,concentration at 20 week,"[1]; sc, SC LEN total, Week 20, read-out: Lower 90% CI of Concentration",43.7 ng/mL
same,concentration at 20 week,"[1]; sc, SC LEN total, Week 20, read-out: Mean LEN plasma concentration",52.5 ng/mL
same,concentration at 30 week,"[1]; sc, SC LEN total, Week 30, read-out: Lower 90% CI of Concentration",24.4 ng/mL
same,concentration at 30 week,"[1]; sc, SC LEN total, Week 30, read-out: Mean LEN plasma concentration",50.1 ng/mL
same,concentration at 1 day,"[1]; sc, Treatment Group 1 (SC LEN + [DVY→TAF]), Day 1, read-out: Mean LEN plasma concentration",28.8 ng/mL
same,concentration at 1 day,"[1]; sc, Treatment Group 2 (SC LEN + [DVY→BIC]), Day 1, read-out: Mean LEN plasma concentration",26.7 ng/mL
same,CD4 count and CD4% during oral bridging (in words),HIV-1,continued to increase from oral bridging baseline
same,Mean (SD) oral bridging baseline CD4 cell count,HIV-1,356 (261.1) cells/μL
same,Mean oral bridging baseline CD4 percentage,HIV-1,17.0%
same,Percentage who maintained HIV-1 RNA<50 copies/mL,HIV-1; Week 10,97.8%
same,Percentage who maintained HIV-1 RNA<50 copies/mL,HIV-1; Week 20,90.9%
same,Mean (SD) change from oral bridging baseline in HIV-1 RNA,"HIV-1; OB baseline HIV-1 RNA<50, Week 10",0.00 (0.250) log10 copies/mL
same,Mean (SD) change from oral bridging baseline in HIV-1 RNA,"HIV-1; OB baseline HIV-1 RNA<50, Week 20",−0.01 (0.096) log10 copies/mL
same,Mean (SD) baseline HIV-1 RNA,HIV-1; OB baseline HIV-1 RNA<50 copies/mL,1.34 (0.121) log10 copies/mL
same,Percentage who achieved HIV-1 RNA<50 copies/mL,"HIV-1; OB baseline HIV-1 RNA≥50, Missing=Excluded, Week 10",27.3%
same,Percentage who achieved HIV-1 RNA<50 copies/mL,"HIV-1; OB baseline HIV-1 RNA≥50, Missing=Excluded, Week 20",50.0%
same,Percentage who achieved HIV-1 RNA<50 copies/mL,"HIV-1; OB baseline HIV-1 RNA≥50, Missing=Failure, Week 10",27.3%
same,Percentage who achieved HIV-1 RNA<50 copies/mL,"HIV-1; OB baseline HIV-1 RNA≥50, Missing=Failure, Week 20",40.0%
same,Mean (SD) change from oral bridging baseline in HIV-1 RNA,"HIV-1; OB baseline HIV-1 RNA≥50, Week 10",−0.58 (1.188) log10 copies/mL
same,Mean (SD) change from oral bridging baseline in HIV-1 RNA,"HIV-1; OB baseline HIV-1 RNA≥50, Week 20",−1.05 (0.867) log10 copies/mL
same,Mean (SD) baseline HIV-1 RNA,HIV-1; OB baseline HIV-1 RNA≥50 copies/mL,3.43 (1.035) log10 copies/mL
same,Mean (SD) change from oral bridging baseline in CD4 cell count,HIV-1; Week 10,−16 (114.2) cells/μL
same,Mean change from oral bridging baseline in CD4 percentage,HIV-1; Week 10,0.2%
same,HIV-1 RNA of the 1 participant who did not maintain <50 copies/mL,"HIV-1; Week 10, missed 2 nonconsecutive oral doses, N74D",920 copies/mL
same,HIV-1 RNA of the 1 participant who did not maintain <50 copies/mL,HIV-1; Week 20,57 copies/mL
same,Mean (SD) change from oral bridging baseline in CD4 cell count,HIV-1; Week 20,12 (71.8) cells/μL
same,Mean change from oral bridging baseline in CD4 percentage,HIV-1; Week 20,1.0%
same,Mean (SD) oral bridging baseline HIV-1 RNA,HIV-1; all who received oral bridging,1.74 (0.947) log10 copies/mL
same,Percentage of participants with HIV-1 RNA<50 copies/mL,"HIV-1; all who received oral bridging, Missing=Excluded, Week 10",83.9%
same,Percentage of participants with HIV-1 RNA<50 copies/mL,"HIV-1; all who received oral bridging, Missing=Excluded, Week 20",91.4%
same,Percentage of participants with HIV-1 RNA<50 copies/mL,"HIV-1; all who received oral bridging, Missing=Failure, Week 10",83.9%
same,Percentage of participants with HIV-1 RNA<50 copies/mL,"HIV-1; all who received oral bridging, Missing=Failure, Week 20",84.2%
same,Mean (SD) change from oral bridging baseline in HIV-1 RNA,"HIV-1; all who received oral bridging, Week 10",-0.11 (0.597) log10 copies/mL
same,Mean (SD) change from oral bridging baseline in HIV-1 RNA,"HIV-1; all who received oral bridging, Week 20",−0.16 (0.476) log10 copies/mL
same,Virologic suppression during oral bridging (in words),HIV-1; majority of participants suppressed at OB baseline,remained virologically suppressed
same,Proportion of participants with HIV-1 RNA<50 copies/mL,"HIV-1; Missing=Excluded, OB Baseline",46/46 (100) %
same,Proportion of participants with HIV-1 RNA<50 copies/mL,"HIV-1; Missing=Excluded, OB Week 30",10/10 (100) %
same,Overall safety and tolerability,[2],generally safe and well tolerated at the intended exposures
same,Overall safety and tolerability of oral bridging LEN 300 mg weekly,[3]; HTE and treatment-naive PWH,generally safe and well tolerated
same,Study drug-related SAEs,[3]; oral bridging period,no study drug-related SAEs

# — patent publication US20240390349A1, “DOSING REGIMEN OF CAPSID INHIBITOR” (priority 2023, published 2024)
